Several values for one entry are separate records, joined by “and”; a condition that tells them apart may be missing. Equal values may be shown once.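 Dose response: 5 concentrations. Exposure: 48 h. Format: 96-well plates. Endpoint: linear interpolation; highest concentration if not reached. GI50 = concentration required for 50% inhibition of growth. Definition used: TGI = concentration required for complete inhibition of growth.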 *1 amine or outer side, *2 acyl side, *3 side chain or, on linkers, in order; H or OH if unused. Where a SMILES comes first, the peptide text is derived from it. Bridges are numbered along the chain shown (N, C = ends). [ ]: non-standard residue; d: D form. The star is where a group is joined. Phe(3-Me) = Cc1cccc(C[C@H](N)C(=O)O)c1; NH(4-Cl-2-F-phenyl) = Fc1cc(Cl)ccc1N*; Pro(4R-Me) = C[C@H]1CN[C@H](C(=O)O)C1; Propanoyl(3-NMe2) = CN(C)CCC(=O)*; Hyp = O=C(O)[C@@H]1C[C@@H](O)CN1; aThr = C[C@H](O)[C@H](N)C(=O)O; Pip = O=C(O)[C@@H]1CCCCN1; CO = O=C([*:1])[*:2]
The compounds below were run on BT-549 breast (assay: NCI-60 cell line screen, 48 h).
Compound `COc1cc2c3c(c4c5ccccc5[nH]c4c2c(OC)c1OC)C(=O)N(CCN1CCCCC1)C3=O` has a GI50 of 4.6 µM and a TGI of 13.4 µM.
`COc1ccc(CNc2nc(NCc3ccc(OC)cc3)c3n[nH]c(C(C)C)c3n2)cc1` showed a GI50 of 3.47 µM and a TGI of 12.2 µM.
`CC(=O)Nc1sc2c(c1-c1nc3ccccc3s1)CNC2` showed a GI50 of 6.83 µM and a TGI of 14.7 µM.
For `Nc1nc2c(c3cnccc13)C(c1cccc(Cl)c1)Cc1cnccc1-2` (stereo unspecified), the GI50 was 0.482 µM and the TGI was 4.21 µM.
`O=C1c2cccnc2C(=O)c2c1c(C(=O)OCCN1CCOCC1)c1ccccn21` gave a GI50 of 0.05 µM and a TGI of 2.62 µM.
With `CC[C@@]1(O)C(=O)OCc2c1cc1n(c2=O)Cc2c-1nc1ccccc1c2/C=N/OC(C)(C)C` the GI50 was under 0.0139 µM and the TGI was 2.02 µM.
`Cc1cccc(C[C@H](NC(=O)Nc2ccc(Cl)cc2F)C(=O)N[C@@H]2C(=O)N3C[C@H](OC(=O)CCN(C)C)C[C@H]3C(=O)N3CCCC[C@H]3C(=O)N[C@@H](C)C(=O)N3C[C@H](C)C[C@H]3C(=O)O[C@H]2C)c1` ({NH(4-Cl-2-F-phenyl)-CO}-[Phe(3-Me)][aThr][Hyp](Propanoyl(3-NMe2))[Pip]A[Pro(4R-Me)]; ester 2-C) showed a GI50 of 0.526 µM and a TGI of 2.48 µM.
In the case of `COc1ccc(-c2nocc2-c2cc(OC)c(OC)c(OC)c2)cc1`, the GI50 is reported as 0.112 µM and the TGI is reported as 19.5 µM.
`C=C1N(C)c2ccc(Cl)cc2C1(C)C` gave a GI50 of 3.35 µM and a TGI of 22.3 µM.
For `COc1ccc(Cn2c(Br)c3c(c2-c2cc(OC)c(OC)c(OC)c2)CCc2sc(NC(C)=O)nc2-3)cc1`, the GI50 was 3.18 µM and the TGI was 19.4 µM.
`O=C(CCl)Nc1ccc2c(c1)C(=O)c1ccc(NC(=O)CCl)cc1C2=O` gave a GI50 of 0.22 µM and a TGI of 0.857 µM.
`COc1cc2c3c(n(CCCCl)c(=O)c2cc1OC)-c1ccc(C#N)cc1C3=O` was tested, and the GI50 was 5.5 µM and the TGI was 23.6 µM.
Work on `COc1ccc(Nc2ncccc2C(=O)NCc2cn(Cc3cccc(Oc4ccccc4)c3)nn2)cc1` yielded a GI50 of 4.58 µM and a TGI of over 100 µM.
With `Cc1ccccc1/C=C1\CN(C(=O)OC(C)(C)C)C/C(=C\c2ccccc2C)C1=O` the GI50 was 2.3 µM and the TGI was 6.61 µM.
`C=C(CN1CCN(c2cccc(F)c2)CC1)c1ccc(C(=O)Nc2ccccc2N)cc1` was tested, and the GI50 was 1.33 µM and the TGI was 12.6 µM.
With `CCc1ccc(Nc2cc(C)nc3nc(C)nn23)cc1` the GI50 was over 100 µM and the TGI was over 100 µM.
`Cc1ccc(NC(=O)c2nc(S(C)=O)oc2-c2ccc(F)cc2)cc1Nc1nccc(-c2cccnc2)n1` (stereo unspecified) gave a GI50 of 1.74 µM and a TGI of 4.17 µM.
Work on `Nc1c(C(=O)Nc2ccccc2)sc2nc3c(cc12)CCCC3` yielded a GI50 of 3.89 µM and a TGI of over 100 µM.
With `COc1cc(NC(N)=NCCC(C)(C)c2ccc(C(F)(F)F)cc2)ncc1C#N` the GI50 was 1.74 µM and the TGI was 3.21 µM.
`O=CC1(C2(C=O)c3ccccc3-c3ccccc32)c2ccccc2-c2ccccc21` showed a GI50 of 2.01 µM and a TGI of 4.84 µM.
Work on `Cc1nn(-c2ccc(Br)cc2)c(C)c1CC(=O)c1cc(O)ccc1O` yielded a GI50 of 15.8 µM and a TGI of 38.4 µM.
In the case of `CCCCCCCCCC(CCCC(O)CC(=O)O)OC1OC(COC2OC(C)C(O)C(O)C2O)C(O)C(O)C1OC1OC(CO)C(O)C(O)C1OC1OC(C)C(O)C(O)C1O` (stereo unspecified), the GI50 is reported as over 40 µM and the TGI is reported as over 40 µM.
For `O=C(CN1CCN(c2ccc(Cl)cc2)CC1)N1CCN(c2nnc(-c3ccccc3)c(-c3ccccc3)n2)CC1`, the GI50 was 3.14 µM and the TGI was over 100 µM.
`CC(C)[C@@H]1CC[C@@H]2[C@@H]1[C@H](OC(=O)/C=C/c1ccccc1)[C@]1(C(C)C)C[C@@H](OC(=O)CO)[C@@]2(C)O1` showed a GI50 of 0.0375 µM and a TGI of 4.38 µM.
For `Oc1cc2ccccc2cc1-c1n[nH]c(=S)n1-c1ccc(Cl)cc1`, the GI50 was 16.2 µM and the TGI was over 100 µM.
With `NC[C@@](O)(c1ccc(Cl)cc1)c1ccc(-c2cn[nH]c2)cc1` the GI50 was 0.892 µM and 1.13 µM and the TGI was 3.91 µM and 7.63 µM.
In the case of `O=C(Nc1ccc(Br)cc1F)c1cc(Br)ccc1O`, the GI50 is reported as 0.403 µM and the TGI is reported as 3.25 µM.
`CCN1CCN(C(=O)[C@]23CCC(C)(C)C[C@@H]2C2=CC[C@@H]4[C@@]5(C)C/C(=C/c6cccnc6)C(=O)C(C)(C)[C@@H]5CC[C@@]4(C)[C@]2(C)CC3)CC1` gave a GI50 of 1.47 µM and a TGI of 2.88 µM.
`O=C1C(Cl)=C(Nc2cccc(O)c2)C(=O)N1c1cccc(Cl)c1Cl` showed a GI50 of 24.5 µM and a TGI of 61.2 µM.
Work on `CCCN1CCN(c2ccc3nc(-c4ccc5nc(-c6ccc(OCC)c(OCC)c6)[nH]c5c4)[nH]c3c2)CC1` yielded a GI50 of 1.13 µM and a TGI of 2.61 µM.
Work on `C/C(=N\NC(=O)c1ccncc1)c1ccc(O)cc1O` yielded a GI50 of over 100 µM and a TGI of over 100 µM.
In the case of `CC(C)Oc1ccc(C(=O)N[C@H](CNC(=O)CN(C)C)Cc2ccc(-c3cn4cccc([C@H](C)O)c4n3)cc2)cc1Cl`, the GI50 is reported as 0.068 µM and the TGI is reported as 17.6 µM.
`O=C(/C=C/c1cccnc1)c1ccccc1O` showed a GI50 of 14.2 µM and a TGI of 28.5 µM.
